The test system of data set [1] is Staphylococcus aureus. The data set can be described thus: Antibacterial activity against methicillin-resistant Staphylococcus aureus EMRSA-15 assessed as reduction in bacterial growth by microbroth dilution assay. Format: functional.
In data set [2] the test system is Staphylococcus aureus. The data set is described as follows: Antibacterial activity against methicillin-resistant Staphylococcus aureus NCTC1044 assessed as reduction in bacterial growth by microbroth dilution assay. Type of data set: functional. In general terms: Broth dilution looks for growth in wells or tubes with falling amounts of substance.
Data set [3] deals with Escherichia coli. The data set is described as follows: Antibacterial activity against Escherichia coli ATCC 25922 assessed as reduction in bacterial growth by microbroth dilution assay. Type of data set: functional.
The test system of data set [4] is Staphylococcus aureus. The data set is described as follows: Antibacterial activity against Staphylococcus aureus ATCC 25923 assessed as reduction in bacterial growth by microbroth dilution assay. Format: functional.
The subject of data set [5] is Klebsiella pneumoniae. The data set can be described thus: Antibacterial activity against Klebsiella pneumoniae ATCC 700603 assessed as reduction in bacterial growth by microbroth dilution assay. Format: functional.
Another data set deals with Pseudomonas aeruginosa. The data set can be described thus: Antibacterial activity against Pseudomonas aeruginosa ATCC 27853 assessed as reduction in bacterial growth by microbroth dilution assay. Type of data set: functional.
Data set [6] is described as follows: Nephrotoxicity in human Kidney organoid assessed as deterioration of renal tubule measured after 48 hrs by bright field imaging analysis. Type of data set: toxicity, tissue-based. The note with it: dose 100-1000 µM.
The subject of data set [7] is Klebsiella pneumoniae. The data set is described as follows: Antibacterial activity against pandrug-resistant Klebsiella pneumoniae MS6671 assessed as reduction in bacterial growth by microbroth dilution assay. Type of data set: functional.
Data set [8] has as its system Klebsiella pneumoniae. The data set is described as follows: Antibacterial activity against Klebsiella pneumoniae ATCC 33495 assessed as reduction in bacterial growth by microbroth dilution assay. Format: functional.
Data set [9] is described as follows: Nephrotoxicity in human Kidney organoid assessed as at 100 uM measured after 48 hrs by bright field imaging analysis. Format: toxicity, tissue-based.
In data set [10] the test system is Acinetobacter baumannii. The data set is described as follows: Antibacterial activity against multidrug resistant Acinetobacter baumannii AB5075 assessed as reduction in bacterial growth by microbroth dilution assay. Type of data set: functional.
Another data set has as its system Enterococcus faecalis. The data set is described as follows: Antibacterial activity against vancomycin resistant Enterococcus faecalis V583 assessed as reduction in bacterial growth by microbroth dilution assay. Format: functional.
Data set [11] deals with Staphylococcus aureus. The data set is described as follows: Antibacterial activity against methicillin-resistant Staphylococcus aureus RA120 assessed as reduction in bacterial growth by microbroth dilution assay. Type of data set: functional.
A short description of data set [12]: Nephrotoxicity in human Kidney organoid assessed as at 300 uM measured after 48 hrs by bright field imaging analysis. Format: toxicity, tissue-based.
Data set [13] relates to Escherichia coli. The data set is described as follows: Antibacterial activity against multidrug resistant Escherichia coli MS834 harbouring mcr-1 assessed as reduction in bacterial growth by microbroth dilution assay. Type of data set: functional.
Data set [14] relates to Acinetobacter baumannii. The data set is described as follows: Antibacterial activity against Acinetobacter baumannii ATCC 19606 assessed as reduction in bacterial growth by microbroth dilution assay. Type of data set: functional.
Data set [15] deals with Staphylococcus aureus. The data set can be described thus: Antibacterial activity against methicillin-resistant Staphylococcus aureus […] assessed as reduction in bacterial growth by microbroth dilution assay. Format: functional.

Converted amounts (≈) assume the structure as drawn. Where only a bound is given, the exact number is not on record here.

A word on the MIC: it is the lowest concentration that inhibits growth of the organism. Turning to `CCC(C)CCC(=O)N[C@H](CC(N)=O)C(=O)N[C@H](Cc1ccccc1)C(=O)N[C@H](Cc1c[nH]c2ccccc12)C(=O)N[C@H](CCCN)C(=O)N[C@@H](CCCN)C(=O)NCC(=O)N[C@H](CCCN)C(=O)N[C@@H](Cc1c[nH]c2ccccc12)C(=O)N[C@@H]1C(=O)N[C@@H]([C@@H](C)CC)C(=O)NCC(=O)N[C@@H](CO)C(=O)O[C@@H]1C` (some centres not stated), the MIC in the data set on Staphylococcus aureus [1] was more than 32 µg/mL; in the data set with Staphylococcus aureus [2] it was more than 32 µg/mL; with Escherichia coli [3], 4 µg/mL (≈ 2.66 µM); in the data set on Staphylococcus aureus [4], more than 32 µg/mL; in the data set on Klebsiella pneumoniae [5] it was 16 µg/mL (≈ 10.6 µM); in the data set on Pseudomonas aeruginosa, 8 µg/mL (≈ 5.32 µM). Further, the MIC was 32 µg/mL (≈ 21.3 µM) in the data set with Klebsiella pneumoniae [7]; 4 µg/mL (≈ 2.66 µM) with Klebsiella pneumoniae [8]; 16 µg/mL (≈ 10.6 µM) in the data set with Acinetobacter baumannii [10]; more than 32 µg/mL in the data set on Enterococcus faecalis; more than 32 µg/mL with Staphylococcus aureus [11]; 8 µg/mL (≈ 5.32 µM) in the data set on Escherichia coli [13]. For the same compound, the results for the MIC with Acinetobacter baumannii [14] and in the data set on Staphylococcus aureus [15] were 16 µg/mL (≈ 10.6 µM) and more than 32 µg/mL, respectively. Further, the results for the Activity result in data set [6], in data set [9] and in data set [12] were “Dose-Dependent Effect”, “Non-Toxic” and “Toxic”, respectively.

For the origin of these results see ChEMBL document CHEMBL5385930, “Synthesis, Structure-Activity Relationship Study, Bioactivity, and Nephrotoxicity Evaluation of the Proposed Structure of the Cyclic Lipodepsipeptide Brevicidine B” (J Nat Prod, 2024).
